The values below come from patent US4640799A, “Carbapenem antibiotics” (priority 1985, dated 1987).

In this experiment the test system is S. aureus A-9606. Kind of experiment: Protective effect in the intramuscular treatment of infected mice. It counts as in vivo. The note with it: Staphylococcus aureus, A9606, im, i.m. 0 and 2 h postinfection, i.p. challenge ~9 × 10^7 (Ex. 4 and 5), read-out: PD50/treatment. On the procedure: Treatment Schedule: *For compound of Ex. 2, mice were infected i.p. with
A20481. For compounds of Ex. 4 and 5, mice were infected i.p. with
(A9843A). Mice were treated i.m. with drugs 0 and 2 h postinfection.
On to `C[C@@H](O)[C@H]1C(=O)N2C(C(=O)[O-])=C(SCC[N+]3(C)CC[S+]([O-])CC3)C[C@H]12` (single isomer, unassigned) [Ex. 5 comp. A], for which the ED50 was determined as 1.2 mg/kg.
Next, `C[C@@H](O)[C@H]1C(=O)N2C(C(=O)[O-])=C(SCC[N+]3(C)CCN(C)CC3)C[C@H]12` [Ex. 4, (5R,6S)3-[2-(1,4-dimethyl-1-piperazinium)ethylthio]-6-[1-(R)-hydroxyethyl]-7-oxo-1-azabicyclo[3.2.0]hept-2-ene-2-carboxylate]: 1.6 mg/kg.
The figure for `C[C@@H](O)[C@H]1C(=O)N2C(C(=O)[O-])=C(SCC[N+]3(C)CCSCC3)C[C@H]12` [Ex. 2, 3-[2-(N-methyl-thiomorpholinium)ethylthio]-6α-[1'-(R)-hydroxyethyl]-7-oxo-1-azabicyclo[3.2.0]-hept-2-ene-2-carboxylate] is 0.72 mg/kg.
